# Measured values reported in patent US9862679B2, “Potent and selective inhibitors of monoamine transporters; method of making; and use thereof” (priority 2013, dated 2018).
# Read-outs that look alike come from different tables or passages of the source.
# Legend:
# [1] = target: dopamine transporter (DAT) (Rattus norvegicus (Rat), UniProt P23977); test: Dopamine Transporter Binding Assay ([3H]WIN 35428, rat striatal membranes)
# [2] = target: serotonin transporter (SERT) (Rattus norvegicus (Rat), UniProt P31652); settings: for Ki: rat brain membranes
# Method: Brains from male Sprague-Dawley rats weighing 200-225 g (Taconic Labs, Germantown, N.Y.) were removed, midbrain dissected and rapidly frozen. […] Nonspecific binding was determined using 10 mM fluoxetine. […] The filters were washed twice with 3 mL cold buffer and transferred to scintillation vials. Beckman Ready Value (3.0 mL) was added and the vials were counted the next day using a Beckman 6000 liquid scintillation counter (Beckman Coulter Instruments, Fullerton, Calif.). […] Data were analyzed with GraphPad Prism software (San Diego, Calif.).
# [3] = target: norepinephrine transporter (NET) (Rattus norvegicus, UniProt Q63380); settings: rat brain membranes; for Ki: read-out: Ki (nM) ± S.E.M. NET
# Method: Binding affinities of all compounds were evaluated at the DAT, SERT, and NET in rat brain membranes using previously described methods:
# Norepinephrine Transporter Binding Assay. Brains from male Sprague-Dawley rats weighing 200-225 g (Taconic Labs, Germantown, N.Y.) were removed, frontal cortex dissected and rapidly frozen. Membranes were prepared by homogenizing tissues in 20 volumes (w/v) of 50 mM Tris containing 120 mM NaCl and 5 mM KCl, (pH 7.4 at 25° C.), using a Brinkman Polytron and centrifuged at 50,000×g for 10 min at 4° C. The resulting pellet was resuspended in buffer, recentrifuged and resuspended in buffer to a concentration of 80 mg/mL. Ligand binding experiments were conducted in assay tubes containing 0.5 mL buffer for 60 min at 0-4° C. […] Nonspecific binding was determined using 1 mM desipramine. Incubations were terminated by rapid filtration through Whatman GF/B filters, presoaked in 0.05% polyethylenimine, using a Brandel R48 filtering manifold (Brandel Instruments Gaithersburg, Md.). The filters were washed twice with 3 mL cold buffer and transferred to scintillation vials. Beckman Ready Value (3.0 mL) was added and the vials were counted using a Beckman 6000 liquid scintillation counter (Beckman Coulter Instruments, Fullerton, Calif.). […] All compounds were tested as racemic mixtures.
# Sigma 2 = Sigma 2 (Homo sapiens (Human), UniProt Q5BJF2); test: Sigma 2 binding affinity (Table 5)
# Sigma 1 = Sigma 1 (Homo sapiens (Human), UniProt Q99720); test: Sigma 1 binding affinity (Table 5)
# [4] = rat brain membranes, Table 1 thioacetamides and sulfinylacetamides, read-out: Ki (nM) ± S.E.M. DAT
# [5] = read-out: Ki (nM) ± S.E.M. SERT, Table 1 thioacetamides and sulfinylacetamides
# [6] = Table 1 thioacetamides and sulfinylacetamides
# [7] = read-out: Ki (nM) ± S.E.M. SERT, Table 2 thioethanamines and sulfinylethanamines
# [8] = Table 2 thioethanamines and sulfinylethanamines
# [9] = rat brain membranes, Table 2 thioethanamines and sulfinylethanamines, read-out: Ki (nM) ± S.E.M. DAT
# [10] = rat brain membranes, Table 5 piperazinyl derivatives, read-out: DAT Ki ± SEM
# [11] = read-out: SERT Ki ± SEM, Table 5 piperazinyl derivatives
# [12] = Table 5 piperazinyl derivatives, read-out: Sigma 2 Ki ± SEM
# [13] = Table 5 piperazinyl derivatives, read-out: Sigma 1 Ki ± SEM
# Chain of dopamine transporter (DAT) (P23977 whole entry): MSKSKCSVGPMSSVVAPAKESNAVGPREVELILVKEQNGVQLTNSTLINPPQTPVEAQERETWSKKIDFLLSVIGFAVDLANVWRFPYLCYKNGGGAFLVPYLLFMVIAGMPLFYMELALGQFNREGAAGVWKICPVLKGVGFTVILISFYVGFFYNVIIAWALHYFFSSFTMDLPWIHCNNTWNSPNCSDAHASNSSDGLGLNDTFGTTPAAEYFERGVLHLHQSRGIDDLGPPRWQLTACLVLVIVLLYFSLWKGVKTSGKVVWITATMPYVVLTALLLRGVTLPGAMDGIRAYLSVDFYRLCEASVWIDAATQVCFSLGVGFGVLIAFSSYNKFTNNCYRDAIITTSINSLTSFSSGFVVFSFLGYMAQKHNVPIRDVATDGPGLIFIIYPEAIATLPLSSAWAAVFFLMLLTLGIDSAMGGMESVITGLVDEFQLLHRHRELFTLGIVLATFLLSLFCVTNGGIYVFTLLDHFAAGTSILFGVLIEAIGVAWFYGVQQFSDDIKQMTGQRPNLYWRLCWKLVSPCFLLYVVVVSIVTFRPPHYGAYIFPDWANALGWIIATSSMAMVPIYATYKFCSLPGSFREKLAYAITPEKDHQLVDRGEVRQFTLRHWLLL
# Chain of serotonin transporter (SERT) (P31652 whole entry): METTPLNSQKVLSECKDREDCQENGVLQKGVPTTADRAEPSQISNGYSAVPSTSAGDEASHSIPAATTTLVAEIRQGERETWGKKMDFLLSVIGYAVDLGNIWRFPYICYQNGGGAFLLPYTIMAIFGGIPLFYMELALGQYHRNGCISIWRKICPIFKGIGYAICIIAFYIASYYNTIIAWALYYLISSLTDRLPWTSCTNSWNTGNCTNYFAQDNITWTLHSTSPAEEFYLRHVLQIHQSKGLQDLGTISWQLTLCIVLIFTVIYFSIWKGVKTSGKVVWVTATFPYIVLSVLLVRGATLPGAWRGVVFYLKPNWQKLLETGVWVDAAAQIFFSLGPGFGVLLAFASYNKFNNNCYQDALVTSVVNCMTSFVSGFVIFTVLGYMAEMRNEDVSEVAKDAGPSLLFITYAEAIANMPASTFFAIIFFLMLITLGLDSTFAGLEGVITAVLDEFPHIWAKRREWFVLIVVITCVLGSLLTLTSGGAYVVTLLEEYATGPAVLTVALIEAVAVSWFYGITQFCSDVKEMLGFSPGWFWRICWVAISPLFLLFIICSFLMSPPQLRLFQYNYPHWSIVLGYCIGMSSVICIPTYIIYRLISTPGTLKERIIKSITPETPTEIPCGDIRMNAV
# Chain of Sigma 2 (Q5BJF2 whole entry): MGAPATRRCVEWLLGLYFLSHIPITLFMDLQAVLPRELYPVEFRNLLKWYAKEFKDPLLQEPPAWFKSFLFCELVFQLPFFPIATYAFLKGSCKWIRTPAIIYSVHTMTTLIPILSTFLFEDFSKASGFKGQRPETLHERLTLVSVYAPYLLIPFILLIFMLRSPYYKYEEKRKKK
# Chain of norepinephrine transporter (NET) (Q63380 1-617): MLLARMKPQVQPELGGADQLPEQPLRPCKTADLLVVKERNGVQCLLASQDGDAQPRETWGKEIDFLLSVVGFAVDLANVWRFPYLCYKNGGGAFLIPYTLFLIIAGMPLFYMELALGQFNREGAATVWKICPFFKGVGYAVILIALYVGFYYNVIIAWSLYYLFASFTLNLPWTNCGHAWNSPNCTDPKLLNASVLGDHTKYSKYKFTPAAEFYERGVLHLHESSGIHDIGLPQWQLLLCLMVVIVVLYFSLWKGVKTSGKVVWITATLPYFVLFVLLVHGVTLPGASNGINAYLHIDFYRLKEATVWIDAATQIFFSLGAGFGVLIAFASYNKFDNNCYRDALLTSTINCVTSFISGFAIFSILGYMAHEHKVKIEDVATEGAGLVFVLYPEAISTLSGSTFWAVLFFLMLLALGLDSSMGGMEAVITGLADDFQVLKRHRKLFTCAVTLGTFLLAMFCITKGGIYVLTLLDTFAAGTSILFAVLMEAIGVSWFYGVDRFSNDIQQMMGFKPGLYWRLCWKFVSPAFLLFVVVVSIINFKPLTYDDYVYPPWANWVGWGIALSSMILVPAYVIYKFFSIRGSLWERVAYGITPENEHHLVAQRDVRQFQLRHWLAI
# Chain of Sigma 1 (Q99720 whole entry): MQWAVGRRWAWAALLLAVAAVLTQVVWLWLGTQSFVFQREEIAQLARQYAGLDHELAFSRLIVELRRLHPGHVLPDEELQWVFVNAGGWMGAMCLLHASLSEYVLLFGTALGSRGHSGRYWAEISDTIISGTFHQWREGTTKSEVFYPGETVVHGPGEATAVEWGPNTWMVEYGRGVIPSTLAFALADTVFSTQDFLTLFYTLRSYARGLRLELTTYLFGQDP
smiles,measurement,setting,value
"CNC(=O)CSC(c1ccccc1)c1ccccc1 [Compound 2g, 2-(Benzhydrylthio)-N-methylacetamide]",Ki,[1]; [4],19400 nM
same,Ki,[2]; [5],> 300000 nM
same,Ki,[3]; [6],27300 nM
"NCCSC(c1ccccc1)c1ccccc1 [Compound 4a, 2-(benzhydrylthio)ethan-1-amine]",improved affinity at the DAT compared to (±)-modafinil,[1],about 20 fold
same,Ki,[1]; read-out: Ki (nM) ± S.E.M. DAT,143 nM
same,Ki,[2]; [7],226 ± 30.6 nM
same,Ki,[3]; [8],982 ± 43.3 nM
"c1ccc(CCCNCCSC(c2ccccc2)c2ccccc2)cc1 [Compound 4f, N-(2-(benzhydrylthio)ethyl)-3-phenylpropan-1-amine]",Ki,[1]; [9],297 ± 28.2 nM
same,Ki,[2]; [7],853 ± 127 nM
same,Ki,[3]; [8],3910 nM
"CCCNC(=O)CSC(c1ccc(F)cc1)c1ccc(F)cc1 [Compound 2l, 2-((Bis(4-fluorophenyl)methyl)thio)-N-propylacetamide]",Ki,[1]; [4],12000 nM
same,Ki,[2]; [5],45100 nM
same,Ki,[3]; [6],61700 nM
"NCC[S+]([O-])C(c1ccccc1)c1ccccc1 (centres unmarked) [Compound 5a, 2-(Benzhydrylsulfinyl)ethan-1-amine]",Ki,[2]; [7],3420 nM
"CCCNC(=O)CSC(c1ccccc1)c1ccccc1 [Compound 2k, 2-(Benzhydrylthio)-N-propylacetamide]",Ki,[1]; [4],20700 nM
same,Ki,[2]; [5],> 550000 nM
same,Ki,[3]; [6],55900 nM
"C=CCNC(=O)CSC(c1ccccc1)c1ccccc1 [Compound 2j, N-Allyl-2-(benzhydrylthio)acetamide]",Ki,[1]; [4],9190 nM
same,Ki,[2]; [5],> 300000 nM
same,Ki,[3]; [6],> 230000 nM
"NC(=O)C[S+]([O-])C(c1ccc(C(F)(F)F)cc1)c1ccc(C(F)(F)F)cc1 (centres unmarked) [Compound 3b, 2-((Bis(4-(trifluoromethyl)phenyl)methyl)sulfinyl)acetamide]",Ki,[1]; [4],35400 nM
"O=C(CSC(c1ccc(F)cc1)c1ccc(F)cc1)NCCCc1ccccc1 [Compound 2v, 2-((Bis(4-fluorophenyl)methyl)thio)-N-(3-phenylpropyl)acetamide]",Ki,[2]; [5],3640 nM
same,Ki,[3]; [6],> 100000 nM
"CNC(=O)CSC(c1ccc(Cl)cc1)c1ccc(Cl)cc1 [Compound 2h, 2-((Bis(4-chlorophenyl)methyl)thio)-N-methylacetamide]",Ki,[2]; [5],> 30000 nM
"O=C(CSC(c1ccc(Br)cc1)c1ccc(Br)cc1)NCCCc1ccccc1 [Compound 2x, 2-((Bis(4-bromophenyl)methyl)thio)-N-(3-phenylpropyl)acetamide]",Ki,[1]; [4],244 ± 36.4 nM
same,Ki,[2]; [5],60800 nM
same,Ki,[3]; [6],36300 nM
"CNC(=O)CSC(c1ccc(Br)cc1)c1ccc(Br)cc1 [Compound 2i, 2-((Bis(4-bromophenyl)methyl)thio)-N-methylacetamide]","improvement in DAT affinity, halogen-substituted v. unsubstituted analogue",[1],6 fold
same,Ki,[1]; [4],3030 nM
same,"increase in SERT affinity, halogen-substituted v. unsubstituted analogue","[2]; 2i v. 2g (Table 1), 4c v. 4a (Table 2)",> 50 fold
same,Ki,[2]; [5],5750 nM
same,Ki,[3]; [6],11200 nM
"CCCCNC(=O)CSC(c1ccccc1)c1ccccc1 [Compound 2r, 2-(Benzhydrylthio)-N-butylacetamide]",Ki,[1]; [4],24000 nM
same,Ki,[2]; [5],> 100000 nM
same,Ki,[3]; [6],> 100000 nM
"O=C(C[S+]([O-])C(c1ccccc1)c1ccccc1)N1CCN(CCCc2ccccc2)CC1 (centres unmarked) [Compound 12a, 2-(Benzhydrylsulfinyl)-1-(4-(3-phenylpropyl)piperazin-1-yl)ethan-1-one]",Ki,[1]; [10],33 ± 2.83 nM
same,Ki,[2]; [11],15200 ± 1100 nM
same,Ki,Sigma 2; [12],0.469 ± 0.0664 µM
same,Ki,Sigma 1; [13],1.43 ± 0.0211 µM
"CCCNC(=O)CSC(c1ccc(Br)cc1)c1ccc(Br)cc1 [Compound 2n, 2-((Bis(4-bromophenyl)methyl)thio)-N-propylacetamide]",Ki,[3]; [6],10600 nM
"O=C(CSC(c1ccccc1)c1ccccc1)NCCCCc1ccccc1 [Compound 2y, 2-(Benzhydrylthio)-N-(4-phenylbutyl)acetamide]",Ki,[1]; read-out: Ki (nM) ± S.E.M. DAT,1160 nM
"CCCCNC(=O)CSC(c1ccc(F)cc1)c1ccc(F)cc1 [Compound 2s, 2-((Bis(4-fluorophenyl)methyl)thio)-N-butylacetamide]",Ki,[1]; [4],6470 nM
"CCCNC(=O)CSC(c1ccc(Cl)cc1)c1ccc(Cl)cc1 [Compound 2m, 2-((Bis(4-chlorophenyl)methyl)thio)-N-propylacetamide]",Ki,[2]; [5],10300 nM
"O=C(C[S+]([O-])C(c1ccc(Br)cc1)c1ccc(Br)cc1)NCCCc1ccccc1 (centres unmarked) [Compound 3g, 2-(Bis(4-bromophenyl)methylsulfinyl)-N-(3-phenylpropyl)acetamide]",Ki,[1]; [4],1290 nM
same,Ki,[2]; [5],906 ± 113 nM
same,Ki,[3]; [6],> 100000 nM
"O=C(CSC(c1ccccc1)c1ccccc1)N1CCN(CCCc2ccccc2)CC1 [Compound 11a, 2-(Benzhydrylthio)-1-(4-(3-phenylpropyl)piperazin-1-yl)ethan-1-one]",Ki,[1]; [10],47.2 ± 5.56 nM
same,Ki,Sigma 2,0.773 µM
same,Ki,Sigma 1,1.12 ± 0.0203 µM
"[O-][S+](CCN1CCN(CC(O)Cc2ccccc2)CC1)C(c1ccc(F)cc1)c1ccc(F)cc1 (racemic) [Compound 10j, 1-(4-(2-((Bis(4-fluorophenyl)methyl)sulfinyl)ethyl)piperazin-1-yl)-3-phenylpropan-2-ol]",Ki,[1]; [10],2.53 ± 0.25 nM
same,Ki,[2]; [11],4610 ± 562 nM
same,Ki,Sigma 2; [12],0.176 ± 0.0263 µM
same,Ki,Sigma 1,0.336 ± 0.0422 µM
"CC(O)CN1CCN(CCSC(c2ccc(F)cc2)c2ccc(F)cc2)CC1 (racemic) [Compound 9d, 1-(4-(2-((Bis(4-fluorophenyl)methyl)thio)ethyl)piperazin-1-yl)propan-2-ol]",Ki,[2]; [11],1770 ± 234 nM
same,Ki,Sigma 2; [12],0.0847 ± 0.0119 µM
same,Ki,Sigma 1; [13],0.00403 ± 0.00022 µM
"[O-][S+](CCNCCCc1ccccc1)C(c1ccc(Br)cc1)c1ccc(Br)cc1 (centres unmarked) [Compound 5e, N-(2-((bis(4-bromophenyl)methyl)sulfinyl)ethyl)-3-phenylpropan-1-amine]",Ki,[1]; [9],1290 nM
same,Ki,[2]; [7],564 ± 65.3 nM
same,Ki,[3]; [8],7580 nM
"CCCCNC(=O)CSC(c1ccc(Br)cc1)c1ccc(Br)cc1 [Compound 2t, 2-((Bis(4-bromophenyl)methyl)thio)-N-butylacetamide]",Ki,[1]; [4],729 ± 69.3 nM
same,Ki,[2]; [5],7090 nM
"CCCCNCC[S+]([O-])C(c1ccccc1)c1ccccc1 (centres unmarked) [Compound 5b, N-(2-(benzhydrylsulfinyl)ethyl)butan-1-amine]",Ki,[1]; [9],1580 nM
same,Ki,[2]; [7],64600 nM
same,Ki,[3]; [8],> 140000 nM
"Brc1ccc(C(SCCNCCCc2ccccc2)c2ccc(Br)cc2)cc1 [Compound 4i, N-(2-((bis(4-bromophenyl)methyl)thio)ethyl)-3-phenylpropan-1-amine]",Ki,[1]; read-out: Ki (nM) ± S.E.M. DAT,618 ± 53 nM
same,Ki,[2]; [7],163 ± 7.49 nM
"O=C(CSC(c1ccc(Br)cc1)c1ccc(Br)cc1)NCCCCc1ccccc1 [Compound 2z, 2-((Bis(4-bromophenyl)methyl)thio)-N-(4-phenylbutyl)acetamide]",Ki,[2]; [5],> 100000 nM
same,Ki (nM) ± S.E.M. NET,[3]; [6],no displacement
same,Ki,[3]; [6],> 100000 nM
"O=C(CSC(c1ccccc1)c1ccccc1)NCCCc1ccccc1 [Compound 2u, 2-(Benzhydrylthio)-N-(3-phenylpropyl)acetamide]",Ki,[1]; read-out: Ki (nM) ± S.E.M. DAT,2020 nM
"CNC(=O)C[S+]([O-])C(c1ccccc1)c1ccccc1 (centres unmarked) [Compound 3f, 2-(Benzhydrylsulfinyl)-N-methylacetamide]",Ki,[1]; [4],13400 nM
same,Ki,[2]; [5],> 100000 nM
same,Ki,[3]; [6],> 100000 nM
"c1ccc(C(SCCNCC2CC2)c2ccccc2)cc1 [Compound 4d, 2-(benzhydrylthio)-N-(cyclopropylmethyl)ethan-1-amine]",Ki,[1]; read-out: Ki (nM) ± S.E.M. DAT,437 ± 30.1 nM
same,Ki,[2]; [7],10000 nM
"CCCCNCCSC(c1ccccc1)c1ccccc1 [Compound 4e, N-(2-(benzhydrylthio)ethyl)butan-1-amine]",Ki,[1]; [9],315 ± 39.9 nM
same,Ki,[2]; [7],5820 nM
same,Ki,[3]; [8],11500 nM
"NC(=O)CSC(c1ccc(Cl)cc1)c1ccc(Cl)cc1 [Compound 100, reference compound]",Ki,[1]; read-out: Ki (nM) ± S.E.M. DAT,2230 nM
same,Ki,[2]; [5],12700 nM
"NC(=O)CSC(c1ccccc1)c1ccccc1 [Compound 2a, 2-(Benzhydrylthio)acetamide]",Ki,[3]; [6],> 100000 nM
"[O-][S+](CCNCCCc1ccccc1)C(c1ccc(F)cc1)c1ccc(F)cc1 (centres unmarked) [Compound 5c, N-(2-((bis(4-fluorophenyl)methyl)sulfinyl)ethyl)-3-phenylpropan-1-amine]",Ki,[1]; [9],200 ± 38.7 nM
same,Ki,[2]; [7],1310 nM
same,Ki,[3]; [8],3280 nM
"NC(=O)CSC(c1cccc(Cl)c1)c1cccc(Cl)c1 [Compound 2e, 2-((Bis(3-chlorophenyl)methyl)thio)acetamide]",Ki,[1]; [4],277 ± 18.3 nM
same,Ki,[2]; [5],739000 nM
same,Ki,[3]; [6],34000 nM
"[O-][S+](CCNCCCc1ccccc1)C(c1ccc(Cl)cc1)c1ccc(Cl)cc1 (centres unmarked) [Compound 5d, N-(2-((bis(4-chlorophenyl)methyl)sulfinyl)ethyl)-3-phenylpropan-1-amine]",Ki,[1]; [9],660 ± 76.9 nM
same,Ki,[2]; [7],542 ± 42.6 nM
same,Ki,[3]; [8],5800 nM
"[O-][S+](CCNCCCc1ccccc1)C(c1ccccc1)c1ccccc1 (centres unmarked) [Compound 200, reference compound]",Ki,[1]; read-out: Ki (nM) ± S.E.M. DAT,194 ± 16.8 nM
same,Ki,[2]; [7],1000 nM
